Measurements as given in patent US11453683B1, “KRas G12D inhibitors” (Mirati Therapeutics, Inc., priority 2019, dated 2022).

Assays:
KRas G12D [1] = target: T1, KRas G12D (Homo sapiens (Human), UniProt P01116, G12D); experiment: KRas G12D Surface Plasmon Resonance (SPR) Binding Assay; conditions: Biacore T200, immobilized biotinylated KRAS protein, 1:1 binding model
Experimental: Briefly, 1 L of 1.05× HBS-Mg buffer (262.5 mM Bioultra Hepes, pH 7.5, 157.5 mM NaCl, 105 mM MgCl2, 0.525 mM TCEP, 0.0305% Brij-35) was prepared and filter sterilized using a 0.22 μm bottle top filter. Approximately 50 mL of 1.05× HBS-Mg buffer was removed and saved for future dilutions. A 50 mL aliquot of DMSO (Sigma Aldrich DMSO Lot. #SHBK2079) was added and continued to stir for 10 minutes, creating the final 1.0× HBS-Mg buffer (250 mM Bioultra Hepes pH 7.5, 150 mM NaCl, 100 mM MgCl2, 0.5mM TCEP, 0.03% Brij-35).
Biacore T200 instrument was primed using 1.0× HBS-Mg buffer before docking a GE Streptavidin (SA) chip and then primed two additional times prior to beginning the immobilization step. All immobilized protein mixtures were created using 3-5mg/mL Biotinylated Avidin-tagged KRAS protein using the following immobilization settings: SA chip type, 1 flow cells per cycle, 720 second contact time, and 5 ul/min flow rate. Normalization of the detector was also performed during the immobilization step using the GE Biallormalize solution.
All compounds were diluted to 10 mM in 100% DMSO prior to being diluted 20× in 1.05× buffer. […] Data evaluation was performed using the Biacore T200 Evaluation software and data fit to 1:1 binding model.
Target sequence in this assay (P01116-2 other isoform, or with tags, fused parts or gaps G12D): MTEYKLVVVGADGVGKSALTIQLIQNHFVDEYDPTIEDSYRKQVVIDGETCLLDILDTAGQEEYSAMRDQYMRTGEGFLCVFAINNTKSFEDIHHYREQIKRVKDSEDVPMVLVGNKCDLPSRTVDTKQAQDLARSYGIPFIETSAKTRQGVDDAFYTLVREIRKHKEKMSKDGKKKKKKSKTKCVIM

KRas G12D [2] = target: T1, KRas G12D; experiment: KRas G12D Binding Assay (TR-FRET displacement); conditions: TR-FRET displacement of Cy5 labelled tracer, GDP-loaded KRAS G12D, 60 minute incubation at 22° C.
Experimental: After a 60 minute incubation at 22° C., the reaction was measured using a PerkinElmer EnVision multimode plate reader via TR-FRET dual wavelength detection, and the percent of control (POC) calculated using a ratiometric emission factor. […] The POC values were fit to a 4-parameter logistic curve and the IC50 value was determined as the concentration where the curve crosses 50 POC.
Target sequence in this assay (P01116 other isoform, or with tags, fused parts or gaps G12D): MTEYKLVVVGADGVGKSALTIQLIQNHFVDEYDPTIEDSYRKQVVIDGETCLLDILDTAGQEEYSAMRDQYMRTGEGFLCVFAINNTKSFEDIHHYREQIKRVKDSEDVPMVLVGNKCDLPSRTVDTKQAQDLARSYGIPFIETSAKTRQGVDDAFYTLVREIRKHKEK

[3] = tested on: KRas G12D-mediated phosphorylation of ERK; experiment: Inhibition of KRas G12D-mediated phosphorylation of ERK in AGS cells; assay type: cell-based; conditions: Homo sapiens; AGS cells expressing G12D, 3 hours, phospho-ERK normalized to GAPDH
Procedure, shortened: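 In-cell Western: p-ERK Thr202/Tyr204 signal over GAPDH, as % of DMSO control, with IC50 from a 4-parameter curve. AGS cells seeded 40,000/well for 12-14 h, exposed to compound 3 h at 0.5% DMSO final, then formaldehyde-fixed and methanol-permeabilized.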

SMILES | Kd (KRas G12D [1]) [µM] | IC50 (KRas G12D [2]) [µM] | IC50 [3] [µM]
OCC(O)CCOc1nc(N2C[C@H]3CC[C@@H](C2)N3)c2cnc(-c3cccc4cccc(Cl)c34)c(F)c2n1 (stereo partly drawn) [Example 57, 4-((4-((1R,5S)-3,8-diazabicyclo[3.2.1]octan-3-yl)-7-(8-chloronaphthalen-1-yl)-8-fluoropyrido[4,3-d]pyrimidin-2-yl)oxy)butane-1,2-diol] | > 1000 | 7.29 | –
Oc1cc(-c2ncc3c(N4C[C@H]5CC[C@@H](C4)N5)nc(OCCc4ncccn4)nc3c2F)c2ccccc2c1 [Example 7, 4-(4-((1R,5S)-3,8-diazabicyclo[3.2.1]octan-3-yl)-8-fluoro-2-(2-(pyrimidin-2-yl)ethoxy)pyrido[4,3-d]pyrimidin-7-yl)naphthalen-2-ol] | 0.464 | 1.87 | –
[2H]C#Cc1cccc2cccc(-c3ncc4c(N5C[C@H]6CC[C@@H](C5)N6)nc(OCC56CCCN5CCC6)nc4c3F)c12 [Example 278, 4-((1R,5S)-3,8-diazabicyclo[3.2.1]octan-3-yl)-7-(8-(ethynyl-d)naphthalen-1-yl)-8-fluoro-2-((tetrahydro-1H-pyrrolizin-7a(5H)-yl)methoxy)pyrido[4,3-d]pyrimidine] | – | 0.0007 | 0.104
CC(C)c1cccc2cc(O)cc(-c3ncc4c(N5CC6CCC(C5)N6)nc(OC[C@@]56CCCN5C[C@H](F)C6)nc4c3F)c12 (racemic) [Example 364, 4-(4-((1R,5S)-3,8-diazabicyclo[3.2.1]octan-3-yl)-8-fluoro-2-((2-fluorotetrahydro-1H-pyrrolizin-7a(5H)-yl)methoxy)pyrido[4,3-d]pyrimidin-7-yl)-5-isopropylnaphthalen-2-ol (racemic, trans)] | – | 0.0023 | 0.322
Oc1cc(-c2ncc3c(N4C[C@H]5CC[C@@H](C4)N5)nc(OCCc4ccccc4F)nc3c2F)c2ccccc2c1 [Example 67, 4-(4-((1R,5S)-3,8-diazabicyclo[3.2.1]octan-3-yl)-8-fluoro-2-(2-fluorophenethoxy)pyrido[4,3-d]pyrimidin-7-yl)naphthalen-2-ol] | 1.15 | 1.25 | –
Oc1ccc(SC(F)(F)F)c(-c2ncc3c(N4CC5CCC(C4)N5)nc(OC[C@@]45CCCN4C[C@H](F)C5)nc3c2F)c1 (racemic) [Example 386, 3-(4-((1R,5S)-3,8-diazabicyclo[3.2.1]octan-3-yl)-8-fluoro-2-((2-fluorotetrahydro-1H-pyrrolizin-7a(5H)-yl)methoxy)pyrido[4,3-d]pyrimidin-7-yl)-4-((trifluoromethyl)thio)phenol (racemic, trans)] | – | 0.002 | 0.32
CC(C)(C)c1ccccc1-c1ncc2c(N3CC4CCC(C3)N4)nc(OC[C@@]34CCCN3C[C@H](F)C4)nc2c1F (racemic) [Example 362, 4-((1R,5S)-3,8-diazabicyclo[3.2.1]octan-3-yl)-7-(2-(tert-butyl)phenyl)-8-fluoro-2-((2-fluorotetrahydro-1H-pyrrolizin-7a(5H)-yl)methoxy)pyrido[4,3-d]pyrimidine (racemic, trans)] | – | 0.106 | 10.5
CSc1cccc2cc(O)cc(-c3ncc4c(N5CC6CCC(C5)N6)nc(OCC56CCCN5C[C@H](F)C6)nc4c3F)c12 (mixture of isomers) [Example 372, 4-(4-((1R,5S)-3,8-diazabicyclo[3.2.1]octan-3-yl)-8-fluoro-2-((2-fluorotetrahydro-1H-pyrrolizin-7a(5H)-yl)methoxy)pyrido[4,3-d]pyrimidin-7-yl)-5-(methylthio)naphthalen-2-ol (racemic, trans)] | – | 0.0007 | 0.0105
C#Cc1c(F)ccc2cc(O)cc(-c3ncc4c(N5CC6CCC(C5)N6)nc(OC[C@]56CCCN5[C@@H](COC(=O)N(C)C)CC6)nc4c3F)c12 [Example 440, ((3R,7aR)-7a-(((4-((1R,5S)-3,8-diazabicyclo[3.2.1]octan-3-yl)-7-(8-ethynyl-7-fluoro-3-hydroxynaphthalen-1-yl)-8-fluoropyrido[4,3-d]pyrimidin-2-yl)oxy)methyl)hexahydro-1H-pyrrolizin-3-yl)methyl dimethyl carbamate] | – | 0.0008 | 0.0084
Nc1ccc(Cl)c(F)c1-c1ncc2c(N3CC4CCC(C3)N4)nc(OC[C@@]34CCCN3C[C@H](F)C4)nc2c1F (racemic) [Example 380, 2-(4-((1R,5S)-3,8-diazabicyclo[3.2.1]octan-3-yl)-8-fluoro-2-((2-fluorotetrahydro-1H-pyrrolizin-7a(5H)-yl)methoxy)pyrido[4,3-d]pyrimidin-7-yl)-4-chloro-3-fluoroaniline bis(2,2,2-trifluoroacetate) (racemic, trans)] | – | 0.0657 | > 16.7
OC[C@@H](O)COc1nc(N2C[C@H]3CC[C@@H](C2)N3)c2cnc(-c3cccc4cccc(Cl)c34)c(F)c2n1 [Example 56, (R)-3-((4-((1R,5S)-3,8-diazabicyclo[3.2.1]octan-3-yl)-7-(8-chloronaphthalen-1-yl)-8-fluoropyrido[4,3-d]pyrimidin-2-yl)oxy)propane-1,2-diol] | 5.17 | 5.92 | –
OCC(COc1nc(N2C[C@H]3CC[C@@H](C2)N3)c2cnc(-c3cccc4cccc(Cl)c34)c(F)c2n1)c1cccnc1 (stereo partly drawn) [Example 59, 3-((4-((1R,5S)-3,8-diazabicyclo[3.2.1]octan-3-yl)-7-(8-chloronaphthalen-1-yl)-8-fluoropyrido[4,3-d]pyrimidin-2-yl)oxy)-2-(pyridin-3-yl)propan-1-ol] | 1.12 | 0.946 | –
CO[C@H]1C[C@@H](COc2nc(N3C[C@H]4CC[C@@H](C3)N4)c3cnc(-c4cccc5cccc(Cl)c45)c(F)c3n2)N(C)C1 [Example 149, 4-((1R,5S)-3,8-diazabicyclo[3.2.1]octan-3-yl)-7-(8-chloronaphthalen-1-yl)-8-fluoro-2-(((2S,4S)-4-methoxy-1-methylpyrrolidin-2-yl)methoxy)pyrido[4,3-d]pyrimidine] | – | 0.87 | –
Fc1c(-c2ccccc2C2CCC2)ncc2c(N3CC4CCC(C3)N4)nc(OCC34CCCN3C[C@H](F)C4)nc12 (mixture of isomers) [Example 371, 4-((1R,5S)-3,8-diazabicyclo[3.2.1]octan-3-yl)-7-(2-cyclobutylphenyl)-8-fluoro-2-((2-fluorotetrahydro-1H-pyrrolizin-7a(5H)-yl)methoxy)pyrido[4,3-d]pyrimidine (racemic, trans)] | – | 0.394 | –
OCC1CCC2(COc3nc(N4C[C@H]5CC[C@@H](C4)N5)c4cnc(-c5cccc6cccc(Cl)c56)c(F)c4n3)CCCN12 (stereo partly drawn) [Example 135, (7a-(((4-((1R,5S)-3,8-diazabicyclo[3.2.1]octan-3-yl)-7-(8-chloronaphthalen-1-yl)-8-fluoropyrido[4,3-d]pyrimidin-2-yl)oxy)methyl)hexahydro-1H-pyrrolizin-3-yl)methanol] | – | 0.0021 | 4.82
COc1cc(-c2ncc3c(N4CC5CCC(C4)N5)nc(OC[C@@]45CCCN4C[C@H](F)C5)nc3c2F)c2ccccc2c1 (racemic) [Example 385, 4-((1R,5S)-3,8-diazabicyclo[3.2.1]octan-3-yl)-8-fluoro-2-((2-fluorotetrahydro-1H-pyrrolizin-7a(5H)-yl)methoxy)-7-(3-methoxynaphthalen-1-yl)pyrido[4,3-d]pyrimidine (racemic, trans)] | – | 3.08 | > 16.7
Oc1cc(-c2ncc3c(N4CC5CCC(C4)N5)nc(OC[C@@]45CCCN4C[C@H](F)C5)nc3c2F)c2c(F)cccc2c1 (racemic) [Example 366, 4-(4-((1R,5S)-3,8-diazabicyclo[3.2.1]octan-3-yl)-8-fluoro-2-((2-fluorotetrahydro-1H-pyrrolizin-7a(5H)-yl)methoxy)pyrido[4,3-d]pyrimidin-7-yl)-5-fluoronaphthalen-2-ol (racemic, trans)] | – | 0.0005 | 0.007
COc1ccc(OC(F)(F)F)c(-c2ncc3c(N4CC5CCC(C4)N5)nc(OC[C@@]45CCCN4C[C@H](F)C5)nc3c2F)c1 (racemic) [Example 361, 4-((1R,5S)-3,8-diazabicyclo[3.2.1]octan-3-yl)-8-fluoro-2-((2-fluorotetrahydro-1H-pyrrolizin-7a(5H)-yl)methoxy)-7-(5-methoxy-2-(trifluoromethoxy)phenyl)pyrido[4,3-d]pyrimidine (racemic, trans)] | – | 2.7 | –
FCC1CCC2(COc3nc(N4C[C@H]5CC[C@@H](C4)N5)c4cnc(-c5cccc6cccc(Cl)c56)c(F)c4n3)CCCN12 (stereo partly drawn) [Example 347, 4-((1R,5S)-3,8-diazabicyclo[3.2.1]octan-3-yl)-7-(8-chloronaphthalen-1-yl)-8-fluoro-2-((3-(fluoromethyl)tetrahydro-1H-pyrrolizin-7a(5H)-yl)methoxy)pyrido[4,3-d]pyrimidine] | – | 0.0021 | 0.459
